Source: the supplement of paper PMC11208160

experiment: recombinant UMI read abundance after kanamycin selection (control-corrected) (log10(CPM+1)); higher = more efficient recombination; extreme values may be limits of the assay; sequences stand for … in AGTGCAGAGAAAATCGGCCAGTTTTCTCTGCCTGCAGTCCGCATGCCGTGGGACCCCTTGGGTTCTAACCTGTTGCCTAGATTTATGCAGCGGACTGCCTTTCTCCCAAAGTGATAAACCGG…AGGTTGGTTTCACT; site = the 11-nt donor
Procedure, shortened: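 Sequenced counts of recombinant UMIs were turned into CPM, averaged across replicates and scaled with control-derived factors. The reported figure is log10(CPM+1). Those UMIs, each 12 nt long, tagged donor and donor-binding-loop pairs on a plasmid with a promoterless kanamycin gene, screened as a pool in Escherichia coli with IPTG (0.07 mM) plus kanamycin or without selection.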
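Note: IS621 bridge recombinase in Escherichia coli cells against a fixed T5 target plasmid.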

Sequence | recombinant UMI read abundance (log10)
GGTCCTACATGGACCGGTTTTCCCGGTAATCCGTATTTGTA (site GGTCCTACTTA) | 0.0187
GGTCCTCCATGGACCGGTTTTCCCGGTAATCCGTATTTGTT (site GGTCCTCCTAA) | 0.025
GGTCGAGCATGGACCGGTTTTCCCGGTAATCCGTATTTGCA (site GATCGAGCTTG) | 0.273
GGTCGAGCATGGACCGGTTTTCCCGGTAATCCGTATTTGCA (site GCTCGAGCTTG) | 0.0115
GGTCGAGCATGGACCGGTTTTCCCGGTAATCCGTATTTGCA (site GGTCGAGCTTG) | 1.83
GGTCGAGCATGGACCGGTTTTCCCGGTAATCCGTATTTGCA (site GTTCGAGCTTG) | 0.824
GGTCGCTCATGGACCGGTTTTCCCGGTAATCCGTATTTGCT (site GGTCGCTCTAG) | 0.782
GGTCGGCCATGGACCGGTTTTCCCGGTAATCCGTATTTGAA (site GGTCGGCCTTT) | 0
GGTGAGCCATGGACCGGTTTTCCCGGTAATCCGTATTTGGG (site GGTGAGCCTCC) | 0.0257
GGTGCATCATGGACCGGTTTTCCCGGTAATCCGTATTTGCT (site GGTGCATCTAG) | 1.92
GGTGCCCCATGGACCGGTTTTCCCGGTAATCCGTATTTGAC (site GGTGCCCCTGT) | 0
GGTGGAACATGGACCGGTTTTCCCGGTAATCCGTATTTGTT (site AGTGGAACTAA) | 0.371
GGTGGAACATGGACCGGTTTTCCCGGTAATCCGTATTTGTT (site CGTGGAACTAA) | 0.00196
GGTGGAACATGGACCGGTTTTCCCGGTAATCCGTATTTGTT (site GGTGGAACTAA) | 0.746
GGTGGAACATGGACCGGTTTTCCCGGTAATCCGTATTTGTT (site TGTGGAACTAA) | 0.00382
GGTGTGCCATGGACCGGTTTTCCCGGTAATCCGTATTTGAC (site GGTGTGCCTGT) | 0
GGTTACTCATGGACCGGTTTTCCCGGTAATCCGTATTTGGA (site GGTTACTCTTC) | 1.18
GGTTAGACATGGACCGGTTTTCCCGGTAATCCGTATTTGAG (site AGTTAGACTCT) | 0.498
GGTTAGACATGGACCGGTTTTCCCGGTAATCCGTATTTGAG (site CGTTAGACTCT) | 0.202
GGTTAGACATGGACCGGTTTTCCCGGTAATCCGTATTTGAG (site GGTTAGACTCT) | 1.12
GGTTAGACATGGACCGGTTTTCCCGGTAATCCGTATTTGAG (site TGTTAGACTCT) | 0.194
GGTTGGACATGGACCGGTTTTCCCGGTAATCCGTATTTGAC (site GATTGGACTGT) | 0
GGTTGGACATGGACCGGTTTTCCCGGTAATCCGTATTTGAC (site GCTTGGACTGT) | 0
GGTTGGACATGGACCGGTTTTCCCGGTAATCCGTATTTGAC (site GGTTGGACTGT) | 1.49
GGTTGGACATGGACCGGTTTTCCCGGTAATCCGTATTTGAC (site GTTTGGACTGT) | 0
GGTTTATCATGGACCGGTTTTCCCGGTAATCCGTATTTGAC (site GGTTTATCTGT) | 0.699

Sequence | recombinant UMI read abundance (log10)
GTAAACCCATGGACCGGTTTTCCCGGTAATCCGTATTTGAT (site GTAAACCCTAT) | 1.45
GTAAGATCATGGACCGGTTTTCCCGGTAATCCGTATTTGGC (site GTAAGATCTGC) | 2.74
GTAAGCACATGGACCGGTTTTCCCGGTAATCCGTATTTGTA (site GTAAGCACTTA) | 2.03
GTAAGCACATGGACCGGTTTTCCCGGTAATCCGTATTTGTA (site GTACGCACTTA) | 0.0491
GTAAGCACATGGACCGGTTTTCCCGGTAATCCGTATTTGTA (site GTAGGCACTTA) | 0.614
GTAAGCACATGGACCGGTTTTCCCGGTAATCCGTATTTGTA (site GTATGCACTTA) | 0.495
GTAAGGCCATGGACCGGTTTTCCCGGTAATCCGTATTTGAC (site ATAAGGCCTGT) | 0
GTAAGGCCATGGACCGGTTTTCCCGGTAATCCGTATTTGAC (site CTAAGGCCTGT) | 0
GTAAGGCCATGGACCGGTTTTCCCGGTAATCCGTATTTGAC (site GTAAGGCCTGT) | 0
GTAAGGCCATGGACCGGTTTTCCCGGTAATCCGTATTTGAC (site TTAAGGCCTGT) | 0
GTAATCTCATGGACCGGTTTTCCCGGTAATCCGTATTTGAC (site GTAATCTCTGT) | 2.51
GTAATTGCATGGACCGGTTTTCCCGGTAATCCGTATTTGTA (site GTAATTGCTTA) | 2.57
GTACAGTCATGGACCGGTTTTCCCGGTAATCCGTATTTGAT (site GTACAGTCTAT) | 2.73
GTACGAGCATGGACCGGTTTTCCCGGTAATCCGTATTTGTG (site GTACGAGCTCA) | 1.39
GTACTATCATGGACCGGTTTTCCCGGTAATCCGTATTTGGC (site GTACTATCTGC) | 3.19
GTACTTCCATGGACCGGTTTTCCCGGTAATCCGTATTTGTC (site GTACTTCCTGA) | 1.93
GTAGAACCATGGACCGGTTTTCCCGGTAATCCGTATTTGCA (site GTAGAACCTTG) | 0
GTAGAGGCATGGACCGGTTTTCCCGGTAATCCGTATTTGTG (site GTAGAGGCTCA) | 1.58
GTAGAGGCATGGACCGGTTTTCCCGGTAATCCGTATTTGTG (site GTCGAGGCTCA) | 0.361
GTAGAGGCATGGACCGGTTTTCCCGGTAATCCGTATTTGTG (site GTGGAGGCTCA) | 0.704
GTAGAGGCATGGACCGGTTTTCCCGGTAATCCGTATTTGTG (site GTTGAGGCTCA) | 0.247
GTAGCAACATGGACCGGTTTTCCCGGTAATCCGTATTTGTA (site GTAGCAACTTA) | 2.18
GTAGGCTCATGGACCGGTTTTCCCGGTAATCCGTATTTGTG (site GTAGGCTCTCA) | 1.4
GTAGGGGCATGGACCGGTTTTCCCGGTAATCCGTATTTGAA (site GTAGGGGCTTT) | 1.18
GTAGTCCCATGGACCGGTTTTCCCGGTAATCCGTATTTGCG (site GTAGTCACTCG) | 0.251
GTAGTCCCATGGACCGGTTTTCCCGGTAATCCGTATTTGCG (site GTAGTCCCTCG) | 0.791
